Here are results for four compounds from patent US12460207B2, “Inhibiting APE2 expression in a subject treated with a drug agent that causes increased APE2 expression” (The Cleveland Clinic Foundation, priority 2021, dated 2025).

d = 2'-deoxy (DNA); m = 2'-O-methyl

The subject of data set [1] is CreERT2+/−, APE2LSL/− mice. Briefly: APE2-ASO treatment of transgenic CreERT2+/−, APE2LSL/− mice (APE2 AKI mouse model). Format: in vivo. The conditions noted are these: for kidney function: treated 4 weeks, once per week. The source says: (§1) APE2 conditional transgenic mice were generated by inserting a transcription-translation STOP cassette flanked by LoxP sites (LSL) at the start of the APE2 locus. An FRT-mediated recombination ColA1 3′ untranslated region locus was used first to generate APE2LSL mice. The STOP cassette prevents expression of the APE2 gene. To remove the STOP cassette and activate APE2 expression in vivo, the APE2LSL mice were mated with Rosa26-Cre-Estrogen Receptor-T2 (CreERT2+/−) mice (18; #8463, The Jackson Laboratory), in which the ERT moiety retains Cre recombinase activity in the cytoplasm until tamoxifen administration releases this block and promotes recombination of genomic LoxP sites. Three-week-old APE2LSL/+CreERT2+/− mice and CreERT2+/− mice were injected intraperitoneally with 10 mg/kg 4-OH-tamoxifen for 3 consecutive days. Creatinine and EPO were measured using mouse creatinine (Crystal Chem) and EPO (R&D Systems) ELISA kits. We used heterozygous male (APE2−/Y) mice (12) bearing a mutated APE2 allele on the X chromosome, in which a genomic region from the 3′-region of its intron 5 to the 5′-region in exon 6 was replaced by a neo cassette by crossing heterozygous APE2 female (APE2−/+) mice with wild-type C57BL/6 mice. […] Using this breeding strategy, there is the potential risk and uncertainty of interference with the germline DNA in the male and female APE2 knockout progeny because APE2 has already been knocked out in the male parent (APE2−/Y) and because the function of APE2 is to be responsible for DNA damage repair (13). All mice were of C57B6 genetic background. All experiments involving animals were pre-approved by the Cleveland Clinic IACUC (Institutional Animal Care and Use Committee).
(§2) Mouse kidney biopsy specimens were submerged in 2.5% EM grade glutaraldehyde in 2.5% glutaraldehyde/4% paraformaldehyde in 0.2 mol/L sodium cacodylate buffer (pH 7.4) at 4° C. immediately after sectioning and fixed at 4° C. overnight. After washing three times for 5 minutes in sodium cacodylate buffer (0.2 mol/L, pH 7.3), kidney fragments were fixed in 1% aqueous osmium tetroxide for 60 minutes at 4° C., then washed twice for 5 minutes with sodium cacodylate buffer and rinsed once with maleate buffer (pH 5.1, 5 minutes). After changing to 1% uranyl acetate in maleate buffer, the samples were stained for 60 minutes; the uranyl acetate was removed. The samples were then washed three times for 5 minutes with maleate buffer and then dehydrated with ascending grades of ethanol, and finally embedded in Epon resin (Electron Microscopy Science). […]

Data set [2] relates to APE2. Put plainly: PK/PD study in C57B6 mice, APE2 expression by western blot. Format: in vivo, mouse. As to the method:
Further optimization of the ASO drug. Potential ASO toxicities fall into two categories: (i) hybridization-dependent toxicities due to on- or off-target events, and (ii) hybridization-independent toxicities, such as excessive immunostimulation due to non-antisense effects of the ASO. We performed the PK/PD study using C57B6 mice. We IP injected six weeks old male mice with 20 mg/kg APE2-ASO and checked the APE2 expression by western blot analysis. We found the APE2 could be knock down in two days and restored in 4 days after injection (FIG. 9).

Data set [3] deals with APE2. Put plainly: Western blot of kidney protein expression in platinum drug-treated mice: APE2. Format: in vivo, mouse. The conditions noted are these: for APE2 expression in kidney cells: 40 mg/kg single intraperitoneal dose. As to the method: (§3) Ten-week-old wild-type C57BL/6J mice weighing 25-28 g were purchased from the Jackson Laboratory. […] An identical volume of saline (0.9% NaCl) was administered intraperitoneally to control mice.
(§4) Total protein samples were isolated with RIPA buffer, fractionated on 4%-12% Bis-Tris polyacrylamide gels (Thermo Fisher Scientific), and electroblotted onto PVDF membranes (Millipore). Membranes were blocked with 5% nonfat milk and incubated overnight with rabbit anti-APE2 polyclonal antibody (Bioss, #bs-6587R), rabbit anti-APE1 polyclonal antibody (Abnova, #H00000328-D02), mouse anti-LIG3 monoclonal antibody (Santa Cruz Biotechnology, #sc-56089), rabbit anti-MRE11 monoclonal antibody (Cell Signaling Technology, #4847), rabbit anti-CtIP polyclonal antibody (Bethyl Laboratories, #300-488A), or goat anti-β-actin polyclonal antibody (Santa Cruz Biotechnology, #sc-1615) overnight at 4° C. Membranes were then washed and incubated with HRP-linked anti-rabbit IgG secondary antibody (Cell Signaling Technology, #7074) or HRP-linked anti-mouse IgG secondary antibody (Cell Signaling Technology, #7076S). […] Detection by chemiluminescence was carried out by means of a SuperSignal West Femto Maximum Sensitivity Substrate kit (Thermo Fisher Scientific) with β-actin as a loading control.
On the technique in general: In western blotting, separated proteins are transferred to a membrane and probed.

For data set [4], the system named is APE2. Briefly: Immunofluorescence of APE2 subcellular localization in HK2 cells after cisplatin. The format is cell-based, human. Particulars: HK2 cells treated with cisplatin. As to the method:
(§5) HEK293T and HK2 cells were purchased from the ATCC. Mouse anti-Prominin-1 MicroBeads (130-092-333, Miltenyi Biotec) were used to isolate PTCs from APE2LSL/− CreERT2+/− mice, Cre-ERT2+/− mice, C57B6 mice, and APE2 KO mice. The primary PTCs were cultured in DMEM/Nutrient Mixture F-12 (DMEM/F12) containing 10% FBS, 100 U/mL penicillin, and 100 μg/mL streptomycin. HEK293T and HK2 cells were routinely genotyped using the Human Cell Line Genotyping System (Promega) and were used within their 6 times passage. Mouse PTCs were genotyped using the primer for transgenic mice and were used within their 3 times passage. All cell lines were used Mycoplasma tested negative.
(§6) Immunofluorescence staining was performed as described previously (20). The slides of HK2 cells were incubated sequentially with rabbit anti-APE2 antibody (GeneTex), goat anti-rabbit Alexa Fluor 488-conjugated secondary antibody (Abcam), mouse anti-MYH9 antibody (GeneTex), goat anti-mouse Alexa Fluor 647-conjugated secondary antibody (Abcam), and rabbit anti-COXIV antibody Alexa Fluor […]-conjugated antibody (Santa Cruz Biotechnology). […]

Data set [5] concerns APE2. Put plainly: Immunofluorescence of APE2 subcellular localization in primary mouse PTCs after cisplatin. The format is cell-based. The conditions noted are these: primary mouse PTCs treated with cisplatin. As to the method:
as §5, §6

For data set [6], the system named is PCNA. Briefly: Western blot of kidney protein expression in cisplatin-treated mice: PCNA. The conditions noted are these: cisplatin 15 mg/kg, 3 days after treatment. Format: in vivo, mouse.
Data set [7] concerns APE2. Put plainly: IHC staining for APE2 in kidney biopsies of C-AKI patients. The format is in vivo, human. Particulars: two patients with C-AKI versus normal kidney biopsies. As to the method: Kidney specimens were obtained from healthy donors and from cisplatin-induced AKI patients in accordance with Cleveland Clinic Foundation Institutional Review Board approval requirements, and written informed consent was obtained in compliance with the Helsinki. Formalin-fixed paraffin-embedded tissue sections were de-paraffinized and then incubated with rabbit anti-APE2 polyclonal antibody (Bioss, bs-6587R), rabbit anti-cleaved caspase-3monoclonal antibody (Cell Signaling Technology, #9664S), rabbit anti-MYH9 antibody (GeneTex GTX113236), or rabbit anti-phosphor-histone H2A.X(Ser139) polyclonal antibody (Cell Signaling Technology, #2577) at 4° C. overnight. After incubation with horseradish peroxidase (HRP)-conjugated goat anti-rabbit secondary antibody, signal was detected using a DAB Substrate kit (Abcam, ab64238) according the manufacturer's instructions. Images were obtained by means of a phase-contrast microscope (Leica DM2000 LED) and a digital camera (Leica DMC 2900).

The test system of data set [8] is CTIP. Briefly: Western blot of kidney protein expression in cisplatin-treated mice: CTIP. The format is in vivo, mouse. Particulars: cisplatin 15 mg/kg, 3 days after treatment. As to the method: as §3, §4
For data set [9], the system named is primary PTCs. Put plainly: Oxygen consumption (Seahorse Cell Mito Stress) of PTCs from cisplatin-treated mice. The format is cell-based, mouse. Particulars: PTCs of cisplatin-treated APE2 KO mice versus WT. As to the method: as §5
The functional activity of PTC mitochondria was measured by using a Seahorse XF24 Analyzer and a Seahorse XF Cell Mito Stress Test Assay (Agilent Technologies). Mitochondrial functionality was examined by direct measurement of the OCR of cells according to the manufacturer's instructions. Briefly, 8×10^4 PTCs were seeded into 24-well plates and allowed to attach overnight. The cells were subjected to OCR detection by sequential injections of oligomycin, carbonyl cyanide p-trifluoromethoxyphenylhydrazone (FCCP), and a combination of rotenone and antimycin A. Basal OCR=measured OCR level before the injection of oligomycin. Adenosine triphosphate (ATP) synthesis-linked OCR (ATP-linked)=basal OCR−OCR following oligomycin injection. […]

The subject of data set [10] is MRE11. Put plainly: Western blot of kidney protein expression in cisplatin-treated mice: MRE11. The format is in vivo, mouse. The conditions noted are these: cisplatin 15 mg/kg, 3 days after treatment. As to the method: as §3, §4
The subject of data set [11] is wild-type (WT) and APE2 KO mice. The conditions noted are these: mouse, in vivo, 15 mg/kg. As to the method: as §3, §1, §2
Data set [12] has as its system LIG3. Put plainly: Western blot of kidney protein expression in cisplatin-treated mice: LIG3. Format: in vivo, mouse. Particulars: cisplatin 15 mg/kg, 3 days after treatment. As to the method:
as §3, §4

The subject of data set [13] is APE1. Briefly: Western blot of kidney protein expression in cisplatin-treated mice: APE1. The format is in vivo, mouse. Particulars: cisplatin 15 mg/kg, 3 days after treatment. As to the method: as §3, §4
The conditions of data set [14]: within 24 hours of administration; cited from earlier work.
Where [15] appears, read: 20 mg/kg IP, six weeks old male C57B6 mice.

As to “mU*mG*mU*C*C*T*T*A*C*A*G*A*A*mG*mG*mU (UGUCCTTACAGAAGGU; sugars from the 5' end m3 d10 m3, all phosphorothioate, methylation of C not given here) [APE2-ASO-3]”, the plasma creatine level result in [1] (compared with saline treated controls, P<0.01) is “significantly reduced”. Also, in data set [1] (compared with vehicle treated mice, age of eight weeks), the “mitochondrial morphology (EM)” value is given as “remained relatively normal”. The figures for the kidney function result in data set [1] and in [1] (listed as APE2-ASO gapmer drug) were “protected” and “protected kidney function”, respectively. In addition, in [2] (setting [15]), the “time to APE2 knock down after injection” value is “two”. For the same compound, the “time to restored APE2 expression after injection” value in data set [2] (setting [15]) amounted to 4 days. Moreover, in data set [2] (wild type C57B6 mice), the APE2 level entry is listed as “knock down”.

Turning to `N.N.O=C([O-])C1(C(=O)[O-])CCC1.[Pt+2]` [carboplatin], the “APE2 expression in kidney cells” value in data set [3] was “slight upregulation”.

`N.N.[Cl][Pt][Cl]` [cisplatin]: the APE2 subcellular localization entry in data set [4] is “enriched in the cytoplasm, especially within mitochondria”. Moreover, in data set [5], the APE2 subcellular localization entry is “enriched in the cytoplasm, especially within mitochondria”. Moreover, in data set [6], the “PCNA expression in kidney” value is on record as “downregulated”. For the same compound, the “APE2 protein in PTCs by IHC” value in data set [7] is “dramatically upregulated”. Also, the “CTIP expression in kidney” value in [8] is “slightly upregulated”. Besides, the “OCR in PTCs” value in [9] was “significantly increased”. For the same compound, the “MRE11 expression in kidney” value in data set [10] is recorded as “slightly upregulated”. Further, the “APE2 expression in kidney” value in [3] (cisplatin 15 mg/kg single intraperitoneal dose, kidney collected 3 days after treatment) is “the most highly upregulated protein”. In data set [11], the kidney damage result is “only minor kidney damage”, the kidney weight entry is “decreased kidney weight”, the “mitochondrial fragmentation (EM)” value is “less mitochondrial fragmentation” and the renal damage result is given as “most severe”. In data set [12], the “LIG3 expression in kidney” value is reported as “slightly upregulated”. Further, the “APE1 expression in kidney” value in [13] was “slightly upregulated”. Further, the “cisplatin excreted via the urine” value in [14] is listed as 50%-80%.

For the compound `O=C1[O][Pt]2([NH][C@@H]3CCCC[C@H]3[NH]2)[O]C1=O` [oxaliplatin], in data set [3], the “APE2 expression in kidney cells” value is listed as “slight upregulation”.
